Measured values published in US20220332708A1 (Cytokinetics, Inc., priority 2021, published 2022).

system: Bovine cardiac myofibrils; assay: Dose-dependent myofibril ATPase modulation (calcium-buffered, pyruvate kinase and lactate dehydrogenase-coupled ATPase assay at pCa25); format: biochemical; conditions: concentration at which ATPase activity was 1.4-fold higher than the bottom of the dose curve, mean of a minimum of two independent tests
Description: In Vitro Model of Dose-Dependent Myofibril ATPase Modulation
Dose responses were measured using a calcium-buffered, pyruvate kinase and lactate dehydrogenase-coupled ATPase assay containing the following reagents (concentrations expressed are final assay concentrations): Potassium PIPES (12 mM), MgCl2 (2 mM), ATP (1 mM), DTT (1 mM), BSA (0.1 mg/ml), NADH (0.5 mM), PEP (1.5 mM), pyruvate kinase (4 U/ml), lactate dehydrogenase (8 U/ml), and antifoam (90 ppm). The pH was adjusted to 6.80 at 22° C. by addition of potassium hydroxide. Calcium levels were controlled by a buffering system containing 0.6 mM EGTA and varying concentrations of calcium, to achieve a free calcium concentration of 1×10^−4 M to 1×10^−8 M.
Bovine cardiac myofibrils were obtained by homogenizing the appropriate tissue in the presence of detergent. Such treatment removes membranes and majority of soluble cytoplasmic proteins but leaves intact cardiac sarcomeric acto-myosin apparatus. Concentrations of myofibrils were adjusted to achieve the necessary rate of ATP hydrolysis (typically 0.25-1.0 mg/ml).
Chemical entity dose responses were measured at the calcium concentration corresponding to 25% of maximal ATPase activity (pCa25), so a preliminary experiment was performed to test the response of the ATPase activity to free calcium concentrations in the range of 1×10^−4 M to 1×10^−8 M. Subsequently, the assay mixture was adjusted to the pCa25. Assays were performed by first preparing a dilution series of test chemical entity, each with an assay mixture containing potassium Pipes, MgCl2, BSA, DTT, pyruvate kinase, lactate dehydrogenase, myofibrils, antifoam, EGTA, CaCl2), and water. The assay was started by adding an equal volume of solution containing potassium Pipes, MgCl2, BSA, DTT, ATP, NADH, PEP, antifoam, and water. ATP hydrolysis was monitored by absorbance at 340 nm. The resulting dose response curve was fit by the 4 parameter equation y=Bottom+((Top−Bottom)/(1+((EC50/X)^Hill))). […] AC1.4 values reported in the table below are mean values based on a minimum of two independent tests.

Row | SMILES | AC1.4 [µM]
1 | CNc1cc2nc(C)[nH]c(=O)c2cc1S(=O)(=O)N[C@@H]1CCc2c([nH]c3ccccc23)C1 (single isomer, unassigned) [Compound 33] | 0.0762
2 | CCOC(=O)c1cc(S(=O)(=O)Nc2ccc(N3C[C@H](C)C[C@@H](C)C3)nc2)[nH]c1C [Compound 30, Ethyl 5-(N-(6-((3R,5R)-3,5-dimethylpiperidin-1-yl)pyridin-3-yl)sulfamoyl)-2-methyl-1H-pyrrole-3-carboxylate] | 0.4832
3 | CNc1cc2c(cc1S(=O)(=O)N[C@H]1C[C@H](c3cc(C(F)(F)F)ccn3)C1)c(=O)[nH]c(=O)n2C [Compound 59] | 0.4184
4 | Cc1[nH]c(S(=O)(=O)N[C@@H]2Cc3cc(F)c(Cl)cc3C2)cc1C(=O)N1CC(C)(O)C1 [Compound 95, (R)-N-(5-chloro-6-fluoro-2,3-dihydro-1H-inden-2-yl)-4-(3-hydroxy-3-methylazetidine-1-carbonyl)-5-methyl-1H-pyrrole-2-sulfonamide] | 0.9577
5 | CNc1cc2c(cc1S(=O)(=O)N[C@]1(C)C[C@H](Nc3cccc(F)c3)C1)c(=O)[nH]c(=O)n2C [Compound 23, N-((cis)-3-((3-fluorophenyl)amino)-1-methylcyclobutyl)-1-methyl-7-(methylamino)-2,4-dioxo-1,2,3,4-tetrahydroquinazoline-6-sulfonamide] | 0.6045
6 | Cc1[nH]c(S(=O)(=O)N[C@H]2C[C@H](c3ccc(Cl)cc3)C2)cc1C(=O)N1CC(C)(C#N)C1 [Compound 53, N-((trans)-3-(4-chlorophenyl)cyclobutyl)-4-(3-cyano-3-methylazetidine-1-carbonyl)-5-methyl-1H-pyrrole-2-sulfonamide] | 0.6222
7 | CNc1cc2c(cc1S(=O)(=O)N[C@H]1C[C@H](Nc3ccccc3)C1)c(=O)[nH]c(=O)n2C [Compound 100, 1-Methyl-7-(methylamino)-2,4-dioxo-N-((1r,3r)-3-(phenylamino)cyclobutyl)-1,2,3,4-tetrahydroquinazoline-6-sulfonamide] | 5.571
8 | Cc1[nH]c(S(=O)(=O)NC23COc4cc(F)c(Cl)cc4C2C3)cc1C(=O)N1CC(C#N)C1 (stereo not shown) [Compound 81, N-(6-chloro-5-fluoro-1,7b-dihydrocyclopropa[c]chromen-1a(2H)-yl)-4-(3-cyanoazetidine-1-carbonyl)-5-methyl-1H-pyrrole-2-sulfonamide] | 1.194
9 | Cc1[nH]c(S(=O)(=O)N[C@@H]2COc3cc(Cl)ccc3C2)cc1C(=O)N1CC(C)(C#N)C1 [Compound 72, (S)-N-(7-chlorochroman-3-yl)-4-(3-cyano-3-methylazetidine-1-carbonyl)-5-methyl-1H-pyrrole-2-sulfonamide] | 0.4237
10 | Cc1[nH]c(S(=O)(=O)N[C@@H]2CCc3c([nH]c4ccccc34)C2)cc1C(=O)N1CCCCC1 [Compound 47, (R)-5-methyl-4-(piperidine-1-carbonyl)-N-(2,3,4,9-tetrahydro-1H-carbazol-2-yl)-1H-pyrrole-2-sulfonamide] | 1.9857
11 | Cc1[nH]c(S(=O)(=O)N[C@H]2C[C@H](n3cc(C(F)(F)F)cn3)C2)cc1C(=O)N1CC(C#N)C1 [Compound 55, 4-(3-cyanoazetidine-1-carbonyl)-5-methyl-N-((trans)-3-(4-(trifluoromethyl)-1H-pyrazol-1-yl)cyclobutyl)-1H-pyrrole-2-sulfonamide] | 5.7638
12 | Cc1[nH]c(S(=O)(=O)N[C@@H]2CCc3cc(Cl)ccc3C2)cc1C(=O)N1CC(C)(C#N)C1 [Compound 67, (R)-N-(6-chloro-1,2,3,4-tetrahydronaphthalen-2-yl)-4-(3-cyano-3-methylazetidine-1-carbonyl)-5-methyl-1H-pyrrole-2-sulfonamide] | 0.05605
13 | Cc1nc2ccc(S(=O)(=O)Nc3ccc(N4C[C@H](C)C[C@@H](C)C4)nc3)cc2c(=O)[nH]1 [Compound 5, N-(6-((3R,5R)-3,5-dimethylpiperidin-1-yl)pyridin-3-yl)-2-methyl-4-oxo-3,4-dihydroquinazoline-6-sulfonamide] | 4.4808
14 | CNc1cc2c(cc1S(=O)(=O)N[C@H]1[C@@H]3CN(c4cccc(F)c4)C[C@@H]31)c(=O)[nH]c(=O)n2C [Compound 22, N-((1R,5S,6s)-3-(3-Fluorophenyl)-3-azabicyclo[3.1.0]hexan-6-yl)-1-methyl-7-(methylamino)-2,4-dioxo-1,2,3,4-tetrahydroquinazoline-6-sulfonamide] | 0.4479
15 | Cc1cc(S(=O)(=O)N[C@@H]2COc3cc(F)c(Cl)cc3[C@@H]2O)cc(N2CC(O)C2)n1 [Compound 86, N-((3R,4S)-6-chloro-7-fluoro-4-hydroxychroman-3-yl)-2-(3-hydroxyazetidin-1-yl)-6-methylpyridine-4-sulfonamide] | 13.53
16 | COc1cc2c(cc1S(=O)(=O)N[C@H]1C[C@H](n3cc(C(F)(F)F)c(C)n3)C1)c(=O)[nH]c(=O)n2C [Compound 62, 7-Methoxy-1-methyl-N-((trans)-3-(3-methyl-4-(trifluoromethyl)-1H-pyrazol-1-yl)cyclobutyl)-2,4-dioxo-1,2,3,4-tetrahydroquinazoline-6-sulfonamide] | 0.8691
17 | CNc1ccc(S(=O)(=O)Nc2ccc(N3C[C@H](C)C[C@@H](C)C3)nc2)cc1C#N (racemic) [Compound 1, 3-Cyano-N-(6-(trans-3,5-dimethylpiperidin-1-yl)pyridin-3-yl)-4-(methylamino) benzenesulfonamide] | 14.3998
18 | CNc1cc2c(cc1S(=O)(=O)N[C@H](C)Cc1cc3ccc(F)cc3[nH]1)c(=O)[nH]c(=O)n2C [Compound 26, (R)-N-(1-(6-fluoro-1H-indo1-2-yl)propan-2-yl)-1-methyl-7-(methylamino)-2,4-dioxo-1,2,3,4-tetrahydroquinazoline-6-sulfonamide] | 2.215
19 | Cc1[nH]c(S(=O)(=O)NC2CCc3c([nH]c4ccccc34)C2)cc1C(=O)N(C)C (stereo not shown) [Compound 36, N,N,2-trimethyl-5-(N-(2,3,4,9-tetrahydro-1H-carbazol-2-yl)sulfamoyl)-1H-pyrrole-3-carboxamide] | 6.922
20 | CNc1cc2c(cc1S(=O)(=O)N[C@H]1C[C@@H](Nc3ccccc3)C1)c(=O)[nH]c(=O)n2C [Compound 17] | 0.6931
21 | Cc1cc(S(=O)(=O)N[C@@H]2COc3cc(F)c(Cl)cc3[C@@H]2O)cc(N2CC[C@@H](C#N)C2)n1 [Compound 91, N-((3R,4S)-6-chloro-7-fluoro-4-hydroxychroman-3-yl)-2-((R)-3-cyanopyrrolidin-1-yl)-6-methylpyridine-4-sulfonamide] | 1.417
22 | CNc1cc2nc(C)[nH]c(=O)c2cc1S(=O)(=O)N[C@H]1CCc2c([nH]c3ccccc23)C1 [Compound 32, (S)-2-Methyl-7-(methylamino)-4-oxo-N-(2,3,4,9-tetrahydro-1H-carbazol-2-yl)-3,4-dihydroquinazoline-6-sulfonamide] | 5.8178
23 | Cc1[nH]c(S(=O)(=O)N[C@@H]2Cc3cc(F)c(Cl)cc3C2)cc1C(=O)N1CC(OC(F)(F)F)C1 [Compound 94, (R)-N-(5-chloro-6-fluoro-2,3-dihydro-1H-inden-2-yl)-5-methyl-4-(3-(trifluoromethoxy)azetidine-1-carbonyl)-1H-pyrrole-2-sulfonamide] | 0.6847
24 | Cc1[nH]c(S(=O)(=O)N[C@@H]2Cc3cc(F)c(Cl)cc3C2)cc1C(=O)N1CC2(COC2)C1 [Compound 96, (R)-N-(5-chloro-6-fluoro-2,3-dihydro-1H-inden-2-yl)-5-methyl-4-(2-oxa-6-azaspiro[3.3]heptane-6-carbonyl)-1H-pyrrole-2-sulfonamide] | 1.218
25 | CNc1cc2nc(C)[nH]c(=O)c2cc1S(=O)(=O)NC1CCN(c2cccc(F)c2)CC1 [Compound 11, N-(1-(3-fluorophenyl)piperidin-4-yl)-2-methyl-7-(methylamino)-4-oxo-3,4-dihydroquinazoline-6-sulfonamide] | 5.252
26 | CNc1cc2nc(C)[nH]c(=O)c2cc1S(=O)(=O)NCCc1cc2ccccc2[nH]1 [Compound 34] | 13.2484
27 | Cc1[nH]c(S(=O)(=O)N[C@@H]2CCc3c([nH]c4ccccc34)C2)cc1C(=O)NCCF [Compound 44, (R)-N-(2-fluoroethyl)-2-methyl-5-(N-(2,3,4,9-tetrahydro-1H-carbazol-2-yl)sulfamoyl)-1H-pyrrole-3-carboxamide] | 0.906
28 | CNc1cc2nc(C)[nH]c(=O)c2cc1S(=O)(=O)NC1CCc2c([nH]c3ccccc23)C1 (stereo not shown) [Compound 28, 2-Methyl-7-(methylamino)-4-oxo-N-(2,3,4,9-tetrahydro-1H-carbazol-2-yl)-3,4-dihydroquinazoline-6-sulfonamide] | 0.2504
